Results taken from ChEMBL document CHEMBL4325834, “De Novo Molecular Design of a Novel Octapeptide That Inhibits In Vivo Melanogenesis and Has Great Transdermal Ability” (J Med Chem, 2018).
Active and inactive are the calls of the source. The calls are words filed in the database; no cut-off is given here. Where a SMILES comes first, the peptide text is derived from it.

What was measured:
[1] = Antioxidant activity assessed as DPPH free radical scavenging activity at 80 uM after 30 mins relative to control; format: functional
[2] = Reducing power of the compound assessed as reducing Fe3+ power at 80 uM using K3Fe(CN)6 in pH 6.6 phosphate buffer relative to control
Tyrosinase = biological target: T1, Tyrosinase (Agaricus bisporus, UniProt O42713); assay: Inhibition of mushroom tyrosinase using L-dopa as substrate assessed as reduction in dopachrome production after 20 mins by spectrophotometry
T1 sequence (O42713 whole entry): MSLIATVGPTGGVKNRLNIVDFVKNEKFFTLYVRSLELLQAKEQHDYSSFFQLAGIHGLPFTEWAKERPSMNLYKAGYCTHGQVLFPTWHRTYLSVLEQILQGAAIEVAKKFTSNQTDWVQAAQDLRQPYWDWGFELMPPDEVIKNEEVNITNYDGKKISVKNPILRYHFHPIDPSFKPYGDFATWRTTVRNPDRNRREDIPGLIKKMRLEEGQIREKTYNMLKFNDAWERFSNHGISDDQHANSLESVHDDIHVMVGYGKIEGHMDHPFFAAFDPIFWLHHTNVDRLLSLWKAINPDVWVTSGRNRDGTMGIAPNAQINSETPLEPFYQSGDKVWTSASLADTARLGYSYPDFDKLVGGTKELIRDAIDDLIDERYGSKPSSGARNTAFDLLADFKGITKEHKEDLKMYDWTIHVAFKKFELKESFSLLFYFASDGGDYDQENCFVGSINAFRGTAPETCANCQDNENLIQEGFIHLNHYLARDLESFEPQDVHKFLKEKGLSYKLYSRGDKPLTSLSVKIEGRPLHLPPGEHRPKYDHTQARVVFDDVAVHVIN

[3] = Hemolytic activity against human erythrocytes assessed as amount of hemoglobin released from lysed cells up to 150 uM relative to control; format: ADME, cell-based, Erythrocyte; details: read-out: Activity
B16 [4] = assay: Cytotoxicity against mouse B16 cells up to 150 uM by MTT assay relative to control; format: cell-based
LAD2 [5] = assay: (§1) Proinflammatory activity in human LAD2 cells assessed as increase in mast-cell degranulation by measuring beta-hexosaminidase release at 0.125 mM preincubated for 30 mins followed 4-nitrophenyl-N-acetyl-beta-D-glucosaminide substrate addition and measured after 90 mins by fluorescence-based microplate reader analysis relative to control; format: ADME; details: lad2, 1.5 h, 125 µM
LAD2 [6] = assay: as §1, with “1” for “0.125”; format: ADME; details: lad2, 1.5 h, 1000 µM
LAD2 [7] = assay: as §1, with “2” for “0.125”; format: ADME; details: lad2, 1.5 h, 2000 µM
[8] = biological target: T2, Tyrosinase (Mus musculus) (UniProt P11344); assay: Inhibition of TYR activity in mouse B16 cells assessed as increase in whitening at 20 uM preincubated for 72 hrs followed L-dopa substrate addition and measured after 4 hrs by fluorescence microscopy; format: cell-based
T2 sequence (whole entry): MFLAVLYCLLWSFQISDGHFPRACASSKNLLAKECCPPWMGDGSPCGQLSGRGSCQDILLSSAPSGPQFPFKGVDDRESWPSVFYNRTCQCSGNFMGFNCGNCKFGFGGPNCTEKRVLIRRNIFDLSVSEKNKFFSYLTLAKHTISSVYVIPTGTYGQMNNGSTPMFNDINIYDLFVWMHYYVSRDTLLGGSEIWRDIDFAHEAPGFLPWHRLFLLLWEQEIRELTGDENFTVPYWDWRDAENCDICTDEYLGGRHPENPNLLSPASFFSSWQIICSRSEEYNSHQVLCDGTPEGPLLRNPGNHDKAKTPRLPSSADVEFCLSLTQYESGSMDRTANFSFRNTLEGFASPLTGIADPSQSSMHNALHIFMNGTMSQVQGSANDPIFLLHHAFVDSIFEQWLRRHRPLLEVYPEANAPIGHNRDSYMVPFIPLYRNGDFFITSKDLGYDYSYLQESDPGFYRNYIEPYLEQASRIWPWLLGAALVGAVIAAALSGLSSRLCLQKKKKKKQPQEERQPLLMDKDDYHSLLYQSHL

[9] = biological target: T2, Tyrosinase (Mus musculus); assay: Inhibition of TYR activity in mouse B16 cells assessed as melanin levels post exfoliation at 20 uM after 72 hrs by spectrophotometric analysis relative to control; format: cell-based; set-up: scale not given: the % may be the effect or the level left
B16 [10] = assay: Downregulation of TYR protein expression in mouse B16 cells after 72 hrs by Western blot analysis; format: functional, cell-based
B16 [11] = assay: Downregulation of MITF protein expression in mouse B16 cells after 72 hrs by Western blot analysis; format: functional, cell-based
[12] = biological target: MAP kinase p38 (Mus musculus) (UniProt P47811+O08911+Q9WUI1+Q9Z1B7); assay: Effect on p38 phosphorylation in mouse B16 cells up to 80 uM after 72 hrs by Western blot analysis; format: cell-based
Mus musculus [13] = species: Mus musculus; assay: Effect on ERK phosphorylation in mouse B16 cells up to 80 uM after 72 hrs by Western blot analysis; format: cell-based
Mus musculus [14] = species: Mus musculus; assay: Effect on JNK phosphorylation in mouse B16 cells up to 80 uM after 72 hrs by Western blot analysis; format: cell-based
Cavia porcellus [15] = assay: Prophylactic protection against UVB-induced pigmentation in Dunkin-Hartley guinea pig pigmentation model assessed as increase in whitening administered topically 6 hrs before UV radiation every day for 2 weeks; format: functional, organism-based
Cavia porcellus [16] = assay: (§2) Anti-melanogenic activity in UVB-induced pigmentation Dunkin-Hartley guinea pig model assessed as inhibition of UV-induced melanin production administered topically using PG solvent 6 hrs before UV radiation every day for 2 weeks by Fontana-Masson-staining based assay; format: functional, organism-based
[17] = Toxicity in Dunkin-Hartley guinea pig model of UVB-induced pigmentation assessed as abnormal morphological changes in epidermis at 1 mM to 2 mM administered topically 6 hrs before UV radiation every day for 2 weeks by Fontana-Masson-staining based assay; set-up: species or system Cavia porcellus; details: in vivo, topical_or_ocular, 1000 µM
[18] = Toxicity in Dunkin-Hartley guinea pig model of UVB-induced pigmentation assessed as abnormal morphological changes in dermis at 1 mM to 2 mM administered topically 6 hrs before UV radiation every day for 2 weeks by Fontana-Masson-staining based assay; format: tissue-based, Cavia porcellus; details: in vivo, topical_or_ocular, 1000 µM
[19] = Drug uptake in skin epidermis of brown guinea pig at 2 mM dosed topically after 30 mins using FITC-labelled compound by H and E staining-based fluorescence microscopy; format: ADME, organism-based, Cavia porcellus; details: in vivo, topical_or_ocular, 0.5 h, 2000 µM
[20] = Drug uptake in skin dermis of brown guinea pig at 2 mM dosed topically after 30 mins using FITC-labelled compound by H and E staining-based fluorescence microscopy; format: ADME, organism-based, Cavia porcellus; details: in vivo, topical_or_ocular, 0.5 h, 2000 µM
[21] = Drug uptake in skin basal layer of brown guinea pig at 2 mM dosed topically after 2 to 4 hrs using FITC-labelled compound by H and E staining-based fluorescence microscopy; format: ADME, organism-based, Cavia porcellus; details: in vivo, topical_or_ocular, 2000 µM
[22] = biological target: T2, Tyrosinase (Mus musculus); assay: Inhibition of TYR activity in mouse B16 cells assessed as reduction in melanin levels at 20 uM after 24 hrs by spectrophotometric analysis relative to control; format: cell-based
[23] = biological target: T3, Tyrosinase (Agaricus bisporus) (UniProt O42713); assay: Inhibition of mushroom tyrosinase using L-dopa as substrate assessed as reduction in L-dopa oxidation at IC50 by spectrophotometry
T3 sequence (whole entry): T1 sequence (O42713 whole entry)

Cavia porcellus [24] = assay: as §2, with “production in epidermis basal layer at 1 to 2 mM” for “production”; format: functional, organism-based

**Q.** Which results are given for `CC(C)[C@H](NC(=O)[C@H](CCCNC(=N)N)NC(=O)[C@H](Cc1ccccc1)NC(=O)[C@H](CS)NC(=O)[C@H](CCCNC(=N)N)NC(=O)[C@@H](N)[C@@H](C)O)C(=O)N[C@@H](CS)C(=O)N[C@@H](CO)C(=O)O` (H-TRCFRVCS-OH)?
**A.** Activity [1]: 97%; Activity [2]: 0.31; IC50 (Tyrosinase): 53 µM; hemolysis [3]: 1%; Activity (B16 [4]): 10%; Activity (LAD2 [5]): 3.87%; Activity (LAD2 [6]): 9.41%; Activity (LAD2 [7]): 10.51%; inhibition [8]: Active; Activity [9]: 52.2%; inhibition (B16 [10]): Active; inhibition (B16 [11]): Active; Activity [12]: inactive; Activity (Mus musculus [13]): inactive; Activity (Mus musculus [14]): inactive; Activity (Cavia porcellus [15]): Dose-dependent effect; Activity (Cavia porcellus [16]): Dose-dependent effect; Activity [17]: Non-Toxic; Activity [18]: Non-Toxic; Drug uptake [19]: Active; Drug uptake [20]: Active; Drug uptake [21]: Not Active; inhibition [22]: Active; inhibition [23]: Active; Activity (Cavia porcellus [24]): Active
